Counter-ions that a name gives are not always drawn. Like-named read-outs stand apart in the source and are kept apart here.
Columns and labels:
IL-23 (p19/p40) = assay: IL23-p19 ELISA, Dendritic, LPS (compound screening using DC cells); type: cell-based, Human
Outline: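 IL-23 in supernatants quantified by sandwich ELISA (anti-p19 capture, biotinylated anti-p40 detection, chemiluminescent readout) after 18 h LPS (1 μg/ml) stimulation. Cells were monocyte-derived DCs (GM-CSF/IL-4, 7 d), IFNγ-primed 24 h and given compound 1 h before LPS; viability by CellTiter Glo.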

IL-23p19 = assay: LPS induced IL23p19 in THP-1 cells (with IFNγ primed) assay; type: cell-based, Human
Outline: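 Readout is secreted IL-23p19, quantified by chemiluminescent sandwich ELISA after 18 h LPS (1 ug/mL) stimulation of THP-1 cells that had been IFNγ-primed (50 ng/mL, ~18 h) and given compound 1 h beforehand at 37 °C. EC50 derived by curve fit; cytotoxicity tracked with Cell Titer Glo.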

[1] = PBMC-derived DC cells, IFNγ primed, LPS 1 μg/ml, 18 hours, 10 pt, read-out: IL23-p19 ELISA, Dendritic, LPS, 10 pt, EC50
[2] = THP-1 cells, IFNγ primed, LPS 1 ug/mL, 18 hours, 10 pt, read-out: IL23-p19 ELISA, THP1-IFNy, LPS, 10 pt EC50
[3] = Homo sapiens, THP-1, 18 h, THP-1 cells, IFNγ primed, LPS 1 ug/mL, 18 hours, 10 pt, read-out: IL23-p19 ELISA, THP1-IFNy, LPS, 10 pt EC50
[4] = Homo sapiens, 18 h, PBMC-derived DC cells, IFNγ primed, LPS 1 μg/ml, 18 hours, 10 pt, read-out: IL23-p19 ELISA, Dendritic, LPS, 10 pt, EC50

In the case of `CCO[C@H]1C[C@@H](n2cc(NC(=O)c3csc(-c4cnn(COP(=O)(O)O)c4)n3)c(-c3ccccn3)n2)C1` [II-85, (4-(4-((1-((1,3-cis)-3-ethoxycyclobutyl)-3-(pyridin-2-yl)-1H-pyrazol-4-yl)carbamoyl)thiazol-2-yl)-1H-pyrazol-1-yl)methyl phosphate triethylamine salt], the EC50 (IL-23 (p19/p40); [1]) is reported as 0.287 µM and the EC50 (IL-23p19; [2]) is reported as 0.0499 µM.

Molecule `Cn1cc(NC(=O)c2ccc(-c3cn[nH]c3)o2)c(-c2ccccn2)n1` [Compound I-67, N-{1-Methyl-3-(pyridine-2-yl)-1H-pyrazol-4-yl}-5-(1H-pyrazol-4-yl)furan-2-carboxamide, formate salt] has an EC50 (IL-23 (p19/p40); PBMC-derived DC cells, IFNγ primed, LPS 1 μg/ml, 18 hours, 10 pt, formate salt, read-out: IL23-p19 ELISA, Dendritic, LPS, 10 pt, EC50) of 0.0041 µM and an EC50 (IL-23p19; [3]) of 0.0723 µM.

Molecule `CCO[C@H]1C[C@@H](n2cc(NC(=O)c3ccc(-c4cn[nH]c4)o3)c(-c3ncccc3F)n2)C1` [Compound I-142, N-(1-((1s,3s)-3-ethoxycyclobutyl)-3-(3-fluoropyridin-2-yl)-1H-pyrazol-4-yl)-5-(1H-pyrazol-4-yl)furan-2-carboxamide formate] has an EC50 (IL-23 (p19/p40); [4]) of 0.0262 µM and an EC50 (IL-23p19; [3]) of 0.0689 µM.

For `COc1ccc(COCC(C)(C)OC(=O)n2cc(-c3nc(C(=O)Nc4cn(C)nc4-c4ccccn4)cs3)cn2)cc1` [II-6, 1-((4-methoxybenzyl)oxy)-2-methylpropan-2-yl 4-(4-((1-methyl-3-(pyridin-2-yl)-1H-pyrazol-4-yl)carbamoyl)thiazol-2-yl)-1H-pyrazole-1-carboxylate], the EC50 (IL-23 (p19/p40); [4]) was 6.89 µM and the EC50 (IL-23p19; [3]) was 0.0874 µM.

Molecule `COCCOCCn1cc(NC(=O)c2ccc(-c3cn[nH]c3)o2)c(-c2ccccn2)n1` [Compound I-16, N-(1-(2-(2-methoxyethoxy)ethyl)-3-(pyridin-2-yl)-1H-pyrazol-4-yl)-5-(1H-pyrazol-4-yl)furan-2-carboxamide] has an EC50 (IL-23 (p19/p40); [4]) of 0.403 µM and an EC50 (IL-23p19; [2]) of 0.125 µM.

For `O=C(Nc1cn(C2CNC2)nc1-c1ccccn1)c1csc(-c2cn[nH]c2)n1` [II-55, N-{1-(Azetidin-3-yl)-3-(pyridine-2-yl)-1H-pyrazol-4-yl}-2-(1H-pyrazol-4-yl)thiazole-4-carboxamide], the EC50 (IL-23 (p19/p40); [4]) was 0.0435 µM and the EC50 (IL-23p19; [3]) was 0.0749 µM.

`CC(OC(=O)C(C)C)OC(=O)n1cc(-c2nc(C(=O)Nc3cn(C)nc3-c3ccccn3)cs2)cn1` (stereo not shown) [II-2, 1-(isobutyryloxy)ethyl 4-(4-((1-methyl-3-(pyridin-2-yl)-1H-pyrazol-4-yl)carbamoyl)thiazol-2-yl)-1H-pyrazole-1-carboxylate] gave an EC50 (IL-23 (p19/p40); [4]) of 0.298 µM and an EC50 (IL-23p19; [3]) of 0.196 µM.

`CN(C)C(=O)n1cc(NC(=O)c2csc(-c3cn[nH]c3)n2)c(-c2ccccn2)n1` [II-125, N-(1-(dimethylcarbamoyl)-3-(pyridin-2-yl)-1H-pyrazol-4-yl)-2-(1H-pyrazol-4-yl)thiazole-4-carboxamide] was tested, and the EC50 (IL-23 (p19/p40); [4]) was 27.3 µM and the EC50 (IL-23p19; [3]) was 1.24 µM.

`CCO[C@H]1C[C@@H](n2cc(NC(=O)c3csc(-c4cn[nH]c4F)n3)c(-c3ccccn3)n2)C1` [II-73, N-(1-((1s,3s)-3-ethoxycyclobutyl)-3-(pyridin-2-yl)-1H-pyrazol-4-yl)-2-(5-fluoro-1H-pyrazol-4-yl)thiazole-4-carboxamide] gave an EC50 (IL-23 (p19/p40); [1]) of 0.343 µM and an EC50 (IL-23p19; [2]) of 0.369 µM.

Work on `CCO[C@H]1C[C@@H](n2cc(NC(=O)c3csc(-c4cnn(COP(=O)(O)O)c4)n3)c(-c3ncccc3F)n2)C1` [II-164, (4-(4-((1-((cis)-3-ethoxycyclobutyl)-3-(3-fluoropyridin-2-yl)-1H-pyrazol-4-yl)carbamoyl)thiazol-2-yl)-1H-pyrazol-1-yl)methyl disodium phosphate] yielded an EC50 (IL-23 (p19/p40); [1]) of 0.912 µM and an EC50 (IL-23p19; [2]) of 0.111 µM.

For `Cn1cc(-c2ccc(C(=O)Nc3cn(CC(C)(C)O)nc3-c3ccccn3)o2)cn1` [Compound I-1, N-(1-(2-hydroxy-2-methylpropyl)-3-(pyridin-2-yl)-1H-pyrazol-4-yl)-5-(1-methyl-1H-pyrazol-4-yl)furan-2-carboxamide 2,2,2-trifluoroacetate], the EC50 (IL-23 (p19/p40); Homo sapiens, 18 h, read-out: IL23-p19 ELISA, Dendritic, LPS, 10 pt, EC50 (μM)) was 3.73 µM and the EC50 (IL-23p19; Homo sapiens, THP-1, 18 h, read-out: IL23-p19 ELISA, THP1-IFNy, LPS, 10 pt EC50 (μM)) was 5.66 µM.

Work on `CCOCCn1cc(NC(=O)c2ccc(-c3cn[nH]c3)o2)c(-c2ccccn2)n1` [Compound I-38, N-(1-(2-ethoxyethyl)-3-(pyridin-2-yl)-1H-pyrazol-4-yl)-5-(1H-pyrazol-4-yl)furan-2-carboxamide] yielded an EC50 (IL-23 (p19/p40); [1]) of 0.0582 µM and an EC50 (IL-23p19; [2]) of 0.172 µM.

`O=C(Nc1cn(C2CN(C(=O)N3CCCC3)C2)nc1-c1ccccn1)c1ccc(-c2cn[nH]c2)o1` [Compound I-93, 5-(1H-Pyrazol-4-yl)-N-{3-(pyridine-2-yl)-1-(pyrrolidine-1-carbonyl)azetidin-3-yl}-1H-pyrazol-4-yl)furan-2-carboxamide, formate salt] gave an EC50 (IL-23 (p19/p40); [4]) of 0.008 µM and an EC50 (IL-23p19; [3]) of 0.0108 µM.

`CC(C)C(=O)N1CC(n2cc(NC(=O)c3ccc(-c4cn[nH]c4)o3)c(-c3ccccn3)n2)C1` [Compound I-95, N-[1-{1-Isobutyrylazetidin-3-yl}-3-(pyridine-2-yl)-1H-pyrazol-4-yl]-5-(1H-pyrazol-4-yl)furan-2-carboxamide, formate salt] showed an EC50 (IL-23 (p19/p40); [4]) of 0.0338 µM and an EC50 (IL-23p19; [3]) of 0.0678 µM.

In the case of `Cn1cc(NC(=O)c2ccc(-c3cnn(COP(=O)(O)O)c3)o2)c(-c2ccccn2)n1` [Compound I-81, [4-{5-((1-Methyl-3-(pyridine-2-yl)-1H-pyrazol-4-yl)carbamoyl)furan-2yl}-1H-pyrazol-1-yl]methyl dihydrogen phosphate], the EC50 (IL-23 (p19/p40); [4]) is reported as 0.96 µM and the EC50 (IL-23p19; [3]) is reported as 0.153 µM.

`O=C(Nc1c[nH]nc1-c1ccccn1)c1csc(-c2cn[nH]c2)n1` [II-32, 2-(1H-pyrazol-4-yl)-N-(3-(pyridin-2-yl)-1H-pyrazol-4-yl)thiazole-4-carboxamide formic acid salt] showed an EC50 (IL-23 (p19/p40); [4]) of 0.191 µM and an EC50 (IL-23p19; [3]) of 0.361 µM.

Work on `O=C(Nc1cn(C(F)F)nc1-c1ccccn1)c1csc(-c2c[nH]nc2C(F)(F)F)n1` [II-95, N-(1-(difluoromethyl)-3-(pyridin-2-yl)-1H-pyrazol-4-yl)-2-(3-(trifluoromethyl)-1H-pyrazol-4-yl)thiazole-4-carboxamide] yielded an EC50 (IL-23 (p19/p40); [4]) of 6.23 µM and an EC50 (IL-23p19; [3]) of 2.25 µM.

`CCO[C@@H]1C[C@H](n2cc(NC(=O)c3ccc(-c4cn[nH]c4)o3)c(-c3ccccn3)n2)C1F` (stereo partly drawn) [Compound I-140, N-(1-((1S,3R)-3-ethoxy-2-fluorocyclobutyl)-3-(pyridin-2-yl)-1H-pyrazol-4-yl)-5-(1H-pyrazol-4-yl)furan-2-carboxamide formate] gave an EC50 (IL-23 (p19/p40); [4]) of 0.224 µM and an EC50 (IL-23p19; [3]) of 0.799 µM.

In the case of `COCCn1cc(NC(=O)c2csc(-c3cn[nH]c3)n2)c(-c2ccccn2)n1` [II-28, N-(1-(2-methoxyethyl)-3-(pyridin-2-yl)-1H-pyrazol-4-yl)-2-(1H-pyrazol-4-yl)thiazole-4-carboxamide], the EC50 (IL-23 (p19/p40); [4]) is reported as 0.063 µM and the EC50 (IL-23p19; [3]) is reported as 0.276 µM.

With `CCOCCn1cc(NC(=O)c2csc(-c3cn[nH]c3C(F)(F)F)n2)c(-c2ccccn2)n1` [II-19, N-(1-(2-ethoxyethyl)-3-(pyridin-2-yl)-1H-pyrazol-4-yl)-2-(5-(trifluoromethyl)-1H-pyrazol-4-yl)thiazole-4-carboxamide, formic acid salt] the EC50 (IL-23 (p19/p40); [4]) was 3.51 µM and the EC50 (IL-23p19; [3]) was 4.01 µM.

`CC(C)NC(=O)N1CC(n2cc(NC(=O)c3ccc(-c4cn[nH]c4)o3)c(-c3ccccn3)n2)C1` [Compound I-85, 3-[4-{5-(1H-Pyrazol-4-yl)furan-2-carboxamido}-3-(pyridine-2-yl)-1H-pyrazol-1-yl]-N-isopropylazetidine-1-carboxamide, free base] showed an EC50 (IL-23 (p19/p40); [4]) of 0.0196 µM and an EC50 (IL-23p19; [3]) of 0.0767 µM.

Molecule `CC(C)(C)OC(=O)N1CC(n2cc(NC(=O)c3csc(-c4cn[nH]c4)n3)c(-c3ccccn3)n2)C1` [II-54] has an EC50 (IL-23 (p19/p40); [4]) of 0.189 µM and an EC50 (IL-23p19; [3]) of 0.171 µM.

For `COCCn1cc(NC(=O)c2ccc(-c3cnn(C(=O)OC(C)OC(=O)C(C)C)c3)o2)c(-c2ccccn2)n1` (stereo not shown) [Compound I-19, 1-(isobutyryloxy)ethyl 4-(5-((1-(2-methoxyethyl)-3-(pyridin-2-yl)-1H-pyrazol-4-yl)carbamoyl)furan-2-yl)-1H-pyrazole-1-carboxylate], the EC50 (IL-23 (p19/p40); [4]) was 0.337 µM and the EC50 (IL-23p19; [3]) was 0.3 µM.

Work on `O=C(Nc1cn([C@H]2C[C@H](OCC(F)(F)F)C2)nc1-c1ncccc1F)c1csc(-c2cn[nH]c2)n1` [II-167, N-(3-(3-fluoropyridin-2-yl)-1-((trans)-3-(2,2,2-trifluoroethoxy)cyclobutyl)-1H-pyrazol-4-yl)-2-(1H-pyrazol-4-yl)thiazole-4-carboxamide] yielded an EC50 (IL-23 (p19/p40); [4]) of 0.0962 µM and an EC50 (IL-23p19; [3]) of 0.0949 µM.

`CCO[C@H]1C[C@@H](n2cc(NC(=O)c3csc(-c4cn[nH]c4)n3)c(-c3ncccc3F)n2)C1` [II-157, N-(1-((cis)-3-ethoxycyclobutyl)-3-(3-fluoropyridin-2-yl)-1H-pyrazol-4-yl)-2-(1H-pyrazol-4-yl)thiazole-4-carboxamide] gave an EC50 (IL-23 (p19/p40); [4]) of 0.564 µM and an EC50 (IL-23p19; [3]) of 0.0615 µM.

`O=C(Nc1cn(CCN2CCOCC2)nc1-c1ccccn1)c1ccc(-c2cn[nH]c2)o1` [Compound I-111, N-(1-(2-morpholinoethyl)-3-(pyridin-2-yl)-1H-pyrazol-4-yl)-5-(1H-pyrazol-4-yl)furan-2-carboxamide] showed an EC50 (IL-23 (p19/p40); [4]) of 0.0268 µM and an EC50 (IL-23p19; [3]) of 0.0291 µM.

Reference: patent US10208074B2, “Pyrazole compounds and method for making and using the compounds” (Rigel Pharmaceuticals, Inc., priority 2015, dated 2019)
